# Test results published in PMC5329948, “Caspase vinyl sulfone small molecule inhibitors prevent axonal degeneration in human neurons and reverse cognitive impairment in Caspase-6-overexpressing mice” (Molecular Neurodegeneration, 2017).
# Test system: HCT116 cells
# Experiment: Cellular toxicity in HCT116 cells (phase contrast, MTT, LDH, sub-G1)
# Type: cell-based, human
# Conditions: for cell morphology (phase contrast) / lactate dehydrogenase (LDH) release / sub-G1 levels of DNA: HCT116, 100 μM, 24 h; for mitochondrial reductive potential (MTT): HCT116, 20, 50 or 100 μM, 24 or 48 h
# Protocol: Immunofluorescence on human neuron cultures: Primary human neurons were pre-treated 2 h and serum-deprived in the presence of 100 μM NWL-117, 100 μM NWL-154, or 5 μM Z-VEID-fmk (Biomol, Plymouth meeting, PA, USA) for 24 h. Following treatment, human neurons were washed once with warm PBS, fixed for 20 min at room temperature with 4% paraformaldehyde (Sigma, Oakville, ON, CA)/4% sucrose (BioRad, Mississauga, ON, CA) for TubΔCasp6 or 2% formaldehyde (Thermo Fisher Scientific, Waltham, MA, USA)/0.2% glutaraldehyde (Sigma, Oakville, ON, CA) for pBudEGFP or pBudEGFP/APP^WT-transfected neurons, incubated in permeabilization buffer (0.1% Triton X-100, 0.1 sodium citrate) for 1 min on ice, washed with PBS, blocked for 20 min at room temperature with 10% goat serum (Sigma, Oakville, ON, CA), and incubated with primary antibodies diluted in 10% goat serum in PBS overnight at 4 °C in a humid chamber. The glass coverslips were washed with PBS, and incubated with goat anti-rabbit secondary antibody coupled to Alexa 488 (Molecular Probes, Eugene, OR, USA) or Cy3 (GE Healthcare Life Sciences, Baie D’Urfe, QC, CA) and Hoechst 33342 (ImmunoChemistry, Bloomington, MN, USA) at 1 μg/mL for 2 h at room temperature. The coverslips were washed with PBS and rinsed in Milli-Q water before mounting in fluoromount (Dako, Burlington, ON, CA). Images were acquired by fluorescence microscopy and quantified using the ImageJ software (NIH, Bethesda, MD, USA) for TubΔCasp6 and manually counted for transfected EGFP(+)-neurons. Time lapse-imaging by live fluorescence microscopy: Primary human neurons were transfected with gold beads coated with pBudEGFP or pBudEGFP/APP^WT using a Helios Gene gun (BioRad, Mississauga, ON, CA). Briefly, cells were pre-treated with 100 μM NWL inhibitors or 5 μM Z-VEID-fmk for 2 h. The media was removed and the neurons were shot at 100 psi. The media was quickly replaced with the inhibitors present. The plasmid was expressed for 16 h before setting up the fluorescence microscope (Nikon Eclipse Ti) to acquire 20 images per condition every hour for 72 h at 37 °C with 5% CO2. The images were analyzed by counting the total number of neurons (50–100 neurons per condition per independent experiment), and the number of beaded, swollen soma, and healthy neurons. In addition, the time at which cells beaded was noted. Phase contrast microscopy: HCT116 cells, plated at a density of 1×10^5 cells/well and human neurons, plated at a density of 6×10^6 cells/well on poly-L-lysine were treated with PBS, 100 μM NWL-117, 100 μM NWL-154, or 2 μM staurosporine (Biomol, Plymouth meeting, PA, USA) for 24 h. Images were acquired with the Nikon Eclipse Ti microscope and the NIS-Elements (Version 3.10) software.
# MTT assay: HCT116 cells or primary human neurons were seeded in 96-well plates at a density of 1x10^4 and 1x10^5 cells per well, respectively. The next day, cells and neurons were treated with vehicle (PBS), or 20, 50, or 100 μM of NWL-117, NWL-154, or 2 μM staurosporine for 24 or 48 h. The media was replaced with […] MTT (3-(4,5-dimethylthiazol-2-yl)-2,5-diphenyltetrazolium bromide) (Sigma-Aldrich, Oakville, ON, CA) and the cells were incubated for 4 h at 37 °C in 5% CO2. The media was removed before dissolving the formazan crystals in 100 μL DMSO while shaking for 30 min. Once dissolved, the absorbance of each sample was measured at 560 nm and 670 nm using the Synergy H4 plate reader from BioTek (Winooski, VT, USA). LDH Assay: HCT116 cells were seeded in a 6-well plate at a density of 1×10^5 cells/well and treated the following day with 100 μM NWL-117 or −154 or equal volumes of vehicle (PBS) for 24 h. As a positive control, some cells were lysed for 2 h in 0.9% Triton X-100 (BioShop Canada Inc, Burlington, Ontario, CA). Media was collected and stored at −20 °C or assayed right away using the Cytotox 96 kit (Promega, Madison, WI, USA) following the manufacturer’s protocol. […]
Structure (SMILES),cell morphology (phase contrast),lactate dehydrogenase (LDH) release,sub-G1 levels of DNA,mitochondrial reductive potential (MTT)
CCC(C)[C@H](NC(=O)[C@H](CCC(=O)O)NC(=O)[C@@H](NC(=O)OCc1ccccc1)C(C)C)C(=O)N[C@H](/C=C/S(C)(=O)=O)CC(=O)O (some centres unmarked) [NWL-117],morphologically normal,did not release lactase dehydrogenase,nor did the cells show increased sub-G1 levels,comparable to vehicle-treated cells
CCC(C)[C@H](NC(=O)[C@H](CCC(=O)O)NC(=O)[C@@H](NC(=O)OCc1ccccc1)C(C)C)C(=O)N[C@H](/C=C(\Cl)S(C)(=O)=O)CC(=O)O (some centres unmarked) [NWL-154],morphologically normal,did not release lactase dehydrogenase,nor did the cells show increased sub-G1 levels,comparable to vehicle-treated cells
